# In US20260248773A1, “POTASSIUM CHANNEL BLOCKERS OR DERIVATIVES THEREOF FOR PREVENTING, ALLEVIATING, AND/OR TREATING TISSUE DYSFUNCTION CAUSED BY TOXIC INSULTS” (priority 2022, published 2026):
# Columns and labels:
# [1] = test system: chemotherapy-induced peripheral neuropathy (CIPN) caused by PTX
# Method: More specifically, initial studies were conducted on the specific case of CIPN as induced by exposure to PTX. […] 16 week old C73L/6 female mice were given a single dose of 35 mg/kg PTX (i.p.). Animals were separated into control (saline, i.p., n=4) or treatment group (2 mg/kg 4-AP daily, i.p., n=4). Pre-treatment Catwalk scores were compared to 21 days post-PTX injection.
# To align with clinical treatments, mice were treated with a PTX dose of 35 mg/kg (equivalent to approximately 110 mg/m^2 and within the clinical treatment range) for four cycles, each three weeks apart.
# The studies also included a 4-AP treatment arm (n=4) with a daily dose of 2 mg/kg 4-AP administered i.p. (as per most previous studies by MN and colleagues).
# To evaluate detailed functional changes in gait, the CatWalk™ (Noldus Information Technology, Wageningen, The Netherlands) method was implemented.
# Sciatic nerve samples were harvested and resin-embedded, sectioned and imaged using transmission electron microscopy. Images were analyzed to calculate markers of peripheral neuropathy, namely: axon counts, fiber size, myelination (g ratio), and circumferential irregularity (FIG. 2).
# PTX-induced CIPN [2] = assay: Repetitive PTX exposure, concurrent low-dose 4-AP weeks 1-12: function and nerve ultrastructure (Examples 3 and 4); assay type: in vivo, mice
# Method: To determine whether 4-AP also conferred protection against developing CIPN when animals were repetitively exposed to PTX, 16 week old C7BL/6 female mice were given four cycles of PTX treatment at doses of 35 mg/kg PTX (i.p.). Animals were separated into control (saline, i.p.) or treatment group treated with a dose of 4AP 25% of that used in Examples 1 and 2 (i.e., 0.5 mg/kg 4-AP daily, i.p.).
# To determine whether 4-AP prevented chemotherapy-induced structural damage even when chemotherapy was applied multiple times, ultrastructural analyses of tissue from mice treated with 35 mg/kg PTX, every 3 weeks, for 4 cycles of treatment was conducted. A low dose of 4-AP that was only 25% of the dose used in Examples 1 and 2 was used, which was applied at 0.5 mg/kg daily instead of 2 mg/kg daily.
# PTX-induced CIPN [3] = assay: Repetitive PTX exposure, delayed 4-AP from week 6 (Example 5); assay type: in vivo, mice; details: four cycles 35 mg/kg PTX
# Method: To examine this question, 16 week old C7BL/6 female mice were given four cycles of PTX treatment at doses of 35 mg/kg PTX (i.p.). Animals were separated into control (saline, i.p.) or treatment group treated with a dose of 4AP 25% of that used in FIGS. 1 and 2 (i.e., 0.5 mg/kg 4-AP daily, i.p., with treatment initiated 6 weeks after the first PTX treatment and when CIPN-related changes were already apparent).
# [4] = 3 weeks after one 35 mg/kg PTX, 2 mg/kg 4-AP daily
# [5] = single 35 mg/kg PTX i.p., 2 mg/kg 4-AP daily i.p., vs saline control
# [6] = single 35 mg/kg PTX, 2 mg/kg 4-AP daily i.p., pre-treatment vs 21 days post-PTX
# [7] = four cycles 35 mg/kg PTX, 0.5 mg/kg 4-AP daily
# [8] = four cycles 35 mg/kg PTX, 0.5 mg/kg 4-AP daily i.p.
# [9] = 0.5 mg/kg 4-AP daily started at week 6
smiles,measurement,setting,value
"Nc1ccncc1 [4-AP, 4-aminopyridine]",PTX-induced changes in mitochondrial size and health,[1]; 2 mg/kg 4-AP daily i.p.,decreased PTX-induced changes in mitochondrial size and health
same,signs of CIPN,"[1]; 2 mg/kg 4-AP daily i.p. vs saline, n=4",significantly reduced signs of CIPN
same,"G ratio (axon:myelin area), sciatic nerve",[1]; [4],better myelinated than the control group
same,"axon circularity, sciatic nerve",[1]; [4],more regularly structured than the control group
same,nerve conduction latency,[1]; [5],significantly smaller increase in latency
same,nerve conduction velocity,[1]; [5],significantly smaller decrease in velocity
same,Catwalk stance phase,[1]; [6],no significant changes
same,Catwalk swing phase,[1]; [6],no significant changes
same,G ratio (axon:myelin area),PTX-induced CIPN [2]; [7],better myelinated than the control (PTX+Saline) group
same,axon circularity,PTX-induced CIPN [2]; [7],more regularly structured than the control group
same,frequency of degenerating myelin profiles,PTX-induced CIPN [2]; [7],decreased frequency of degenerating myelin profiles
same,"gait abnormalities, Catwalk analyses",PTX-induced CIPN [2]; [8],ameliorated PTX-induced gait abnormalities
same,"jumping behavior, cold-plate stimulus",PTX-induced CIPN [2]; [8],"highly significant at Weeks 6, 9 and 12"
same,"nerve conduction (latency, amplitude, velocity)",PTX-induced CIPN [2]; [8],ameliorated PTX-induced abnormalities in nerve conduction
same,"pawlifts, cold-plate stimulus",PTX-induced CIPN [2]; [8],trended significant at Weeks 6 and 9 and were highly significant at Week 12
same,"mechanical hypersensitivity, von Frey filament testing","PTX-induced CIPN [2]; four cycles 35 mg/kg PTX, 0.5 mg/kg 4-AP daily i.p. weeks 1-12",ameliorated PTX-induced mechanical hypersensitivity
same,mitochondrial health by mitochondrial structure,"PTX-induced CIPN [2]; repetitive exposure to chemotherapy, 0.5 mg/kg 4-AP daily",improves mitochondrial health
same,"mechanical hypersensitivity, von Frey filament testing",PTX-induced CIPN [3]; 0.5 mg/kg 4-AP daily i.p. started at week 6,benefits of 4-AP treatment began to be observed at Week 12
same,"gait abnormalities, Catwalk analyses",PTX-induced CIPN [3]; [9],reversed PTX-induced gait abnormalities
same,"jumping behavior, cold-plate stimulus",PTX-induced CIPN [3]; [9],reversed the symptoms of hypersensitivity to thermal stimuli
same,"nerve conduction (latency, amplitude, velocity)",PTX-induced CIPN [3]; [9],reversed PTX-induced abnormalities in nerve conduction
same,structural myelin abnormalities indicative of myelin degeneration,PTX-induced CIPN [3]; [9],reversed PTX-induced structural myelin abnormalities
